Laboratory results: paper PMC11466185, “Mechanisms and efficacy of small molecule latency-promoting agents to inhibit HIV reactivation ex vivo” (JCI Insight, 2024)

Legend:
[1] = system: HIV transcripts (TAR, LLTR, Pol, PolyA, TatRev); experiment: Baseline HIV transcription without activation, PBMCs from ART-suppressed PWH, 24 hours; format: cell-based; conditions: no activation
Procedure: For a selection of the compounds, we evaluated the ability to reduce baseline HIV transcription without activation. PBMCs were cultured in the presence of individual drugs in DMSO or DMSO alone as a control and harvested after 24 hours. For each drug, we tested PBMCs from at least 3 PWH, as indicated in Supplemental Figure 5B. […] Likewise, pladienolide B appeared to reduce the level of multiply spliced transcripts (33%, Supplemental Figure 5, A and B).
PBMCs were isolated from fresh venous blood from 16 ART-suppressed HIV-infected study participants using Ficoll density gradient centrifugation. The cells were seeded at 6 × 10^6 cells/well and cultured with antiretrovirals (nevirapine and indinavir) to prevent new infection. On the next day, PBMCs were activated with anti-CD3/CD28–coated beads (Invitrogen) in the presence of 20 U/mL IL-2 and individual drugs in DMSO or DMSO alone as a control. Since we were limited in the PBMC yield per study participant, different study participants were used for different experiments (such as the initial screen, dose response, different time points, and studies in activated vs. unstimulated cells). In addition, the yields of PBMCs were sometimes insufficient to test all drugs for a given question or experiment.
Total cellular DNA and RNA were extracted in parallel using Trireagent (Molecular Research Center) according to the manufacturer’s instructions, except for study participants 2147 and 2461 (Figure 4), for whom DNA and RNA were extracted using the QIAGEN AllPrep DNA/RNA/miRNA Universal Kit with on-column DNase I treatment of the RNA and the manufacturer’s modification to enhance recovery of short transcripts. RNA and DNA concentrations were measured using UV spectrophotometry (NanoDrop One, Thermo Fisher Scientific). Total initiated HIV (TAR) transcripts were quantified by a 3-step polyadenylation RT-ddPCR as described previously ([8], [84]). HIV 5′ elongated (LLTR), midtranscribed (Pol), completed (PolyA), and multiply spliced (TatRev) transcripts were quantified by a 2-step RT-ddPCR as previously described ([8]). The levels of each HIV transcript were normalized to 1 μg of total cellular RNA and expressed as a percentage of the (activated) DMSO control. To quantify virion-associated RNA in supernatant, RNA was extracted from 400 μL supernatant using Trireagent-LS (Molecular Research Center) according to the manufacturer’s instructions. Levels of U3-polyadenylated HIV RNA were measured in the supernatant by RT-ddPCR, normalized to copies/mL, and expressed as a percentage of the activated DMSO. For measuring the HIV infection frequency at day 6, the HIV DNA U3-U5 LTR region was quantified by using ddPCR as described previously ([8]). HIV DNA copies were normalized to cell numbers according to the mass of DNA input per well (calculated from the DNA concentration and input volume) ([85]).
Figure S5. CDK-inhibitors appear to decrease baseline HIV splicing even in the absence of T cell activation. Each drug was tested in PBMCs from at least three ART-suppressed study participants and PBMCs were aliquoted into wells at 6x10^6 cells/well. The cells were cultured with antiretrovirals but without activation in the presence of individual drugs in (1 picture or pasted object on this page, not shown here)
DMSO or DMSO alone as control. After 24h, total RNA was extracted and the progression through different stages of HIV transcription was quantified by measuring the levels of initiated (TAR), 5’ elongated (LLTR), mid-transcribed/unspliced (Pol), completed (PolyA) and multiply spliced (TatRev) HIV transcripts. A-B) The levels of all HIV transcripts were quantified, normalized to 1 µg of total cellular RNA, and expressed as a percent of the DMSO control (% of DMSO). A) Medians are shown, as well as the values of the individual study participants in different colors. B) The medians from panel A) are presented. The effect of each drug on the different transcripts was studied in three to six study participants, as […]

PBMCs = experiment: Total number of live cells (proliferation) by trypan blue staining at day 6; format: cell-based, human; conditions: for Fig 6B: total live cells relative to DMSO+CD3/28: DMSO+CD3/28 = 100
Procedure: Some of our candidate LPAs can block the effects of T cell activation, which could affect T cell proliferation. Therefore, we evaluated the extent to which variations in the level of infected cells may contribute to reductions in different HIV RNA transcripts. We measured the total number of viable cells (as a measure of proliferation) and the conserved U3-U5 LTR HIV DNA region (as a measure of total infection frequency) at day 6.
(A) After 6 days, the total number of live cells was measured by trypan blue staining and then normalized to the levels of the activated DMSO (% of activated DMSO). All conditions were tested in the presence of CD3^+/CD28^+ T cell–activating beads, except for the unactivated DMSO condition. Bars indicate medians, and different colors indicate individual study participants. Comparisons were performed using Wilcoxon’s signed-rank test. (B) Total cellular DNA was extracted, and the levels of U3-U5 HIV DNA were measured to quantify infection frequency at 6 days. HIV DNA levels were normalized to copies per 10^6 cells using the input of cellular DNA (assuming 1 μg of total DNA corresponds to 160,000 cells) and then normalized to the activated DMSO control (% of activated DMSO). Bars indicate medians, and different colors indicate individual study participants.

[2] = participant 156, ruxolitinib 4μM, dinaciclib 8nM, AZD4573 8nM, pladienolide B 10nM, KRIBB11 2.5μM
[3] = participant 156, ruxolitinib 4μM, dinaciclib 8nM, AZD4573 8nM, pladienolide B, KRIBB11 2.5μM
[4] = participant 163, ruxolitinib 4μM, dinaciclib 8nM, AZD4573 8nM, pladienolide B 10nM, KRIBB11 2.5μM
[5] = participant 163, ruxolitinib 4μM, dinaciclib 8nM, AZD4573 8nM, pladienolide B, KRIBB11 2.5μM
[6] = participant 2027, ruxolitinib 4μM, dinaciclib 8nM, AZD4573 8nM, pladienolide B 10nM, KRIBB11 2.5μM
[7] = participant 2027, ruxolitinib 4μM, dinaciclib 8nM, AZD4573 8nM, pladienolide B, KRIBB11 2.5μM

For CNc1ccc([N+](=O)[O-])c(Nc2ccc3[nH]ncc3c2)n1 [KRIBB11], the “HIV transcription levels in the absence of T cell activation (in words)” value ([1]; 24 hours, at least 3 PWH) was “little effect”, the “LLTR HIV transcripts (DMSO = 100)” value [1, 2] was 90.95 and the “Pol HIV transcripts (DMSO = 100)” value [1, 2] was 85.77. The “PolyA HIV transcripts (DMSO = 100)” value [1, 2] was 144.03, the “Tat-Rev HIV transcripts (DMSO = 100)” value [1, 2] was 735.63 and the “PolyA/LLTR ratio (DMSO = 1)” value [1, 3] was 1.584. For the same compound, the “TatRev/PolyA ratio (DMSO = 1)” value [1, 3] was 5.108, the “LLTR HIV transcripts (DMSO = 100)” value [1, 4] was 72.79 and the “Pol HIV transcripts (DMSO = 100)” value [1, 4] was 89.89. For the same compound, the “PolyA HIV transcripts (DMSO = 100)” value [1, 4] was 74.5, the “Tat-Rev HIV transcripts (DMSO = 100)” value [1, 4] was 0 and the “PolyA/LLTR ratio (DMSO = 1)” value [1, 5] was 1.0234. The “TatRev/PolyA ratio (DMSO = 1)” value [1, 5] was 0, the “LLTR HIV transcripts (DMSO = 100)” value [1, 6] was 71.57 and the “Pol HIV transcripts (DMSO = 100)” value [1, 6] was 64.26. For the same compound, the “PolyA HIV transcripts (DMSO = 100)” value [1, 6] was 97.36, the “TAR HIV transcripts (DMSO = 100)” value [1, 6] was 144.19 and the “LLTR/TAR ratio (DMSO = 1)” value [1, 7] was 0.4964. For the same compound, the “PolyA/LLTR ratio (DMSO = 1)” value [1, 7] was 1.36, the “Total live cell numbers (proliferation) compared with activated DMSO (in words)” value (PBMCs; day 6, Figure 6A) was “did not change proliferation rates” and the “Fig 6B: total live cells relative to DMSO+CD3/28” value (PBMCs; participant 2027) was 80. For the same compound, the “Fig 6B: total live cells relative to DMSO+CD3/28” value (PBMCs; participant 2147a) was 78.71, the “Fig 6B: total live cells relative to DMSO+CD3/28” value (PBMCs; participant 2147b) was 84.85 and the “Fig 6B: total live cells relative to DMSO+CD3/28” value (PBMCs; participant 2256) was 100. For the same compound, the “Fig 6B: total live cells relative to DMSO+CD3/28” value (PBMCs; participant 2461) was 133.29, the “Fig 6B: total live cells relative to DMSO+CD3/28” value (PBMCs; participant 2747) was 114.29 and the “Total number of live cells (Fig 6A)” value (PBMCs; study participant 150a, day 6) was 109.33 % of activated DMSO. For the same compound, the “Total number of live cells (Fig 6A)” value (PBMCs; study participant 156, day 6) was 86.05 % of activated DMSO, the “Total number of live cells (Fig 6A)” value (PBMCs; study participant 163, day 6) was 93.17 % of activated DMSO and the “Total number of live cells (Fig 6A)” value (PBMCs; study participant 2027, day 6) was 77.91 % of activated DMSO. The “Total number of live cells (Fig 6A)” value (PBMCs; study participant 2147a, day 6) was 131.05 % of activated DMSO, the “Total number of live cells (Fig 6A)” value (PBMCs; study participant 2147b, day 6) was 144.41 % of activated DMSO and the “Total number of live cells (Fig 6A)” value (PBMCs; study participant 2256, day 6) was 80.69 % of activated DMSO. The “Total number of live cells (Fig 6A)” value (PBMCs; study participant 2461, day 6) was 93.23 % of activated DMSO and the “Total number of live cells (Fig 6A)” value (PBMCs; study participant 2747, day 6) was 107.08 % of activated DMSO.
